In ChEMBL document CHEMBL1938228, “Design and synthesis of potent carboxylic acid DGAT1 inhibitors with high cell permeability” (Bioorg Med Chem Lett, 2012):

Columns and labels:
Salmonella typhimurium = experiment: Induction of mutagenesis in Salmonella Typhimurium TA98 assessed as increase in mutation frequency in presence of liver S9 fraction relative to untreated control; format: toxicity, organism-based; conditions: salmonella enterica subsp. enterica serovar typhimurium
[1] = Lipophilicity, log D of the compound; format: physicochemical; conditions: octanol/water
[2] = Aqueous solubility of the compound; format: physicochemical

Row | logD [1] | solubility [2] | SMILES | fold change (FC) (Salmonella typhimurium)
1 | – | – | CC(C)(COc1ccc(-c2ccc(N)cc2)cc1)C(=O)O | 24
2 | – | – | CC(C)(COc1ccc(-c2ccc(N)cc2)cn1)C(=O)O | 2.6
3 | -0.53 | > 1000 µg/mL | CC(Sc1nnc(-c2ccc(NC(=O)c3ccccc3)cc2)n1C)C(=O)O (racemic) | –
